One assay deals with Human CypA (Homo sapiens (Human), UniProt P62937). Nature of the assay: Cyclophilin peptidyl-prolyl isomerase functional assay (PPIase), CypA. Type of assay: biochemical. To be noted: human recombinant enzyme, 10° C.; read-out: Inhibition (Ki, nM) Human CypA.
The target of assay [1] is recombinant Calcineurin (CaN) (Homo sapiens (Human), UniProt P63098+Q08209). In words: Calcineurin phosphatase inhibition assay without cyclophilin A. The class given is biochemical. Particulars: RII phosphopeptide substrate, read-out: CaN Inhibition (IC50, nM) − CypA.
Procedure: (§1) The compounds were supplied as a dry powder or oils and made up as a 10 mM stock solution in 100% DMSO. Subsequent dilutions were made in 100% DMSO for use in all assays.
(§2) Calcineurin Phosphatase Inhibition Assay with and without Cyclophilin A
(§3) This colorimetric 96 well assay is designed for inhibitor screening of recombinant Calcineurin (CaN). […] In a 96-well plate, two dilution series were prepared, one with the cyclophilin A enzyme (7-point) and another without (4-point). An assay buffer/calcineurin/calmodulin master mix was added followed by the phosphopeptide substrate (RII). After incubation at 30° C. the reaction was stopped by the addition of malachite green/molybdate reagent. The coloured complex formed with liberated phosphate was quantified by reading the absorbance at 620 nm. The blank corrected data was plotted against inhibitor concentration to determine an IC50 value.
A further assay has as its system permeabilized HepG2. In words: Calcium retention capacity (CRC) assay in permeabilized HepG2. The class given is cell-based. Particulars: Homo sapiens.
The target of assay [2] is recombinant Calcineurin (CaN) (Homo sapiens (Human), UniProt P62937+P63098+Q08209). Nature of the assay: Calcineurin phosphatase inhibition assay with cyclophilin A. The class given is biochemical. To be noted: RII phosphopeptide substrate, read-out: CaN Inhibition (IC50, nM) + CypA.
Procedure: as §1, §2, §3
The next assay concerns the target Human CypD (Homo sapiens (Human), UniProt P30405). In words: Cyclophilin peptidyl-prolyl isomerase functional assay (PPIase), CypD. Type of assay: biochemical. To be noted: human recombinant enzyme, 10° C.; read-out: Inhibition (Ki, nM) Human CypD.
[3] abbreviates: permeabilized HepG2, area under the curve, read-out: Calcium Retention Capacity EC50.

Like-named read-outs stand apart in the source and are kept apart here. Starred links: 1 amine or outer side, 2 acyl side, 3 side chain; linkers in the order of their positions; H or OH if unused. Non-standard residues stand in square brackets, D forms with d. Residues, ends and D or L forms follow the SMILES beside them. ξ: configuration not given here. NMeBmt(3-oxo) = C/C=C/C[C@@H](C)C(=O)[C@H](NC)C(=O)O; MeBmt = C/C=C/C[C@@H](C)[C@@H](O)[C@H](NC)C(=O)O; ξThr(3S) = C[C@H](O[*:3])C(N[*:1])C(=O)[*:2]; X1 = CN([C@H](OCCN1CCOCC1)C(=O)[*:2])[*:1]; X2 = CN(C)CCO[C@H](C(=O)[*:2])N(C)[*:1]; NMeL = CN[C@@H](CC(C)C)C(=O)O; NMeV = CN[C@H](C(=O)O)C(C)C; Nva = CCC[C@H](N)C(=O)O

Human CypD, sequence (P30405 30-207): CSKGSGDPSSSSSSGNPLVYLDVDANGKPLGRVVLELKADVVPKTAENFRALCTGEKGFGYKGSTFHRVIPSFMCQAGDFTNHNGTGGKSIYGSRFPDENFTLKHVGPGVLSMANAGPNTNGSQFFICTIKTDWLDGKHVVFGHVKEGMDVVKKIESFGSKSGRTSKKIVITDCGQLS
Procedure for Human CypA: as §1
(§4) Measurements were performed using an Agilent 8453 spectrophotometer. Assay buffer was cooled to 10° C. (with stirring) in a precision glass cuvette and inhibitor was added from a DMSO stock solution to afford a final concentration of <1% DMSO. A blank spectrum was obtained and then enzyme and substrate were added and the change in absorbance measured over 5 min. A first order rate was fitted to the absorbance data to obtain a rate constant (first 10 to 15 s were eliminated due to mixing). The catalytic rate was calculated from the enzymatic rate minus the background rate. The enzymatic rate constant, determined in duplicate at each inhibitor concentration, was plotted against inhibitor concentration and a non-linear fit by SigmaPlot generated a Ki.
Procedure for Human CypD: as §1, §4
Procedure for permeabilized HepG2: Calcium Retention Capacity (CRC) Assay in Permeabilized HepG2
HepG2 cells were permeabilised with 100 μM digitonin for 10 min in ice cold buffer containing 1 mM EGTA. Following two wash steps to remove the digitonin, the cells were plated into 96 well black and clear plates at 1e^6 cell per well in 180 μL assay buffer containing 0.5 μM Calcium Green 5N. Compounds dilutions were made in DMSO to 1000-fold the final concentration, diluted 1:100 in assay buffer and added to the assay as 20 μL per well. The assay buffer contained 5 mM glutamate and 2.5 mM malate. The cell plate was immediately run on the FLIPR Tetra™ which added 5 μL of 200 μM (5 μM) calcium chloride every 5 minutes whilst reading the plate every 3 seconds. The area under the curve at each concentration of compound was calculated. EC50 values were calculated.
The assay as described above measures the loss of inhibition based on the release of calcium, which is determined by increased intensity of fluorescence reporting of the calcium-binding dye used in the assay.

In general, Ki refers to the equilibrium dissociation constant of an inhibitor or competing ligand from its target. Usually IC50 stands for the point on the concentration scale where inhibition reaches its midpoint. By EC50 is commonly meant the concentration that produces a half-maximal response. Regarding `C/C=C/C[C@@H](C)[C@@H](O)[C@H]1C(=O)N[C@@H](CC)C(=O)N(C)[C@H](OCC/N=C/N(C)C)C(=O)N(C)[C@@H](CC(C)C)C(=O)N[C@@H](C(C)C)C(=O)N(C)[C@@H](CC(C)C)C(=O)N[C@@H](C)C(=O)N[C@H](C)C(=O)N(C)[C@@H](CC(C)C)C(=O)N(C)[C@@H](CC(C)C)C(=O)N(C)[C@@H](C(C)C)C(=O)N1C` [Compound 10], the Ki on Human CypA turned out to be 14 nM; on Human CypD it was 9.7 nM. In addition, the figures for the IC50 in assay [1] and in assay [2] were 3710 nM and 1830 nM, respectively. Also, the EC50 in the assay with permeabilized HepG2 (setting [3]) stood at 3200 nM.
Take `C/C=C/C[C@@H](C)[C@@H](O)[C@H]1C(=O)N[C@@H](CC)C(=O)N(C)[C@H](OCC(C)(C)N(C)C)C(=O)N(C)[C@@H](CC(C)C)C(=O)N[C@@H](C(C)C)C(=O)N(C)[C@@H](CC(C)C)C(=O)N[C@@H](C)C(=O)N[C@H](C)C(=O)N(C)[C@@H](CC(C)C)C(=O)N(C)[C@@H](CC(C)C)C(=O)N(C)[C@@H](C(C)C)C(=O)N1C` [Compound 11]: the Ki on Human CypA is 25 nM; at Human CypD, 6 nM. Besides, the IC50 was determined as 1620 nM in assay [1] and 616 nM in assay [2]. For the same compound, the EC50 with permeabilized HepG2 (setting [3]) stood at 3320 nM.
For `C/C=C/C[C@@H](C)C(=O)[C@H]1C(=O)N[C@@H](C(C)C)C(=O)N(C)[C@H](OCCN(C)C)C(=O)N(C)[C@@H](CC(C)C)C(=O)N[C@@H](C(C)C)C(=O)N(C)[C@@H](CC(C)C)C(=O)N[C@@H](C)C(=O)N[C@H](C)C(=O)N(C)[C@@H](CC(C)C)C(=O)N(C)[C@@H](CC(C)C)C(=O)N(C)[C@@H](C(C)C)C(=O)N1C` [Compound 5] (cyclo(A[dA][NMeL][NMeL][NMeV][NMeBmt(3-oxo)]V[X2][NMeL]V[NMeL])) the same measures were 23 nM, 17 nM, greater than 10000 nM, greater than 10000 nM and greater than 10000 nM.
On to `C/C=C/C[C@@H](C)[C@@H](O)[C@H]1C(=O)N[C@@H](CC)C(=O)N(C)[C@H](OCCN(C)C)C(=O)N(C)[C@@H](CC(C)C)C(=O)N[C@@H](C(C)C)C(=O)N(C)[C@@H](CC(C)C)C(=O)N[C@@H](C)C(=O)N[C@H](C)C(=O)N(C)[C@@H](CC(C)C)C(=O)N(C)[C@@H](CC(C)C)C(=O)N(C)[C@@H](C(C)C)C(=O)N1C` [Compound 1, reference compound], for which the EC50 in the assay on permeabilized HepG2 (HepG2, read-out: Calcium Retention Capacity EC50 (nM)) turned out to be 916 nM.
`C/C=C/C[C@@H](C)[C@@H](O)[C@H]1C(=O)N[C@@H](CC)C(=O)N(C)[C@H](OCC2(N(C)C)CC2)C(=O)N(C)[C@@H](CC(C)C)C(=O)N[C@@H](C(C)C)C(=O)N(C)[C@@H](CC(C)C)C(=O)N[C@@H](C)C(=O)N[C@H](C)C(=O)N(C)[C@@H](CC(C)C)C(=O)N(C)[C@@H](CC(C)C)C(=O)N(C)[C@@H](C(C)C)C(=O)N1C` [Compound 12]: the Ki at Human CypA was 6.5 nM; on Human CypD, 6 nM.
Consider `C/C=C/C[C@@H](C)[C@@H](O)[C@H]1C(=O)NC([C@H](C)O)C(=O)N(C)[C@H](OCCN(C)C)C(=O)N(C)[C@@H](CC(C)C)C(=O)N[C@@H](C(C)C)C(=O)N(C)[C@@H](CC(C)C)C(=O)N[C@@H](C)C(=O)N[C@H](C)C(=O)N(C)[C@@H](CC(C)C)C(=O)N(C)[C@@H](CC(C)C)C(=O)N(C)[C@@H](C(C)C)C(=O)N1C` (stereo partly drawn) [Compound 2] (cyclo(A[dA][NMeL][NMeL][NMeV][MeBmt][ξThr(3S)][X2][NMeL]V[NMeL])), for which the Ki on Human CypA worked out at 50 nM; at Human CypD, 78 nM. In addition, the IC50 is greater than 10000 nM in assay [1] and 5000 nM in assay [2]. The EC50 in the assay with permeabilized HepG2 (setting [3]) is greater than 10000 nM.
Regarding `C/C=C/C[C@@H](C)[C@@H](O)[C@H]1C(=O)N[C@@H](CCC)C(=O)N(C)[C@H](OCCN(C)C)C(=O)N(C)[C@@H](CC(C)C)C(=O)N[C@@H](C(C)C)C(=O)N(C)[C@@H](CC(C)C)C(=O)N[C@@H](C)C(=O)N[C@H](C)C(=O)N(C)[C@@H](CC(C)C)C(=O)N(C)[C@@H](CC(C)C)C(=O)N(C)[C@@H](C(C)C)C(=O)N1C` [Compound 7] (cyclo(A[dA][NMeL][NMeL][NMeV][MeBmt][Nva][X2][NMeL]V[NMeL])), the IC50 in assay [1] is 3220 nM; in assay [2] it was 789 nM. In the assay on permeabilized HepG2 (setting [3]), the EC50 was found to be 2370 nM.
Regarding `C/C=C/C[C@@H](C)[C@@H](O)[C@H]1C(=O)N[C@@H](CCC)C(=O)N(C)[C@H](OCCN2CCOCC2)C(=O)N(C)[C@@H](CC(C)C)C(=O)N[C@@H](C(C)C)C(=O)N(C)[C@@H](CC(C)C)C(=O)N[C@@H](C)C(=O)N[C@H](C)C(=O)N(C)[C@@H](CC(C)C)C(=O)N(C)[C@@H](CC(C)C)C(=O)N(C)[C@@H](C(C)C)C(=O)N1C` [Compound 8] (cyclo(A[dA][NMeL][NMeL][NMeV][MeBmt][Nva][X1][NMeL]V[NMeL])), the IC50 in assay [1] was 7830 nM; in assay [2] it was 636 nM. For the same compound, in the assay on permeabilized HepG2 (setting [3]), the EC50 is 1610 nM.
`C/C=C/C[C@@H](C)[C@@H](O)[C@H]1C(=O)N[C@@H](CC)C(=O)N(C)[C@H](OCC/N=C(\C)N(C)C)C(=O)N(C)[C@@H](CC(C)C)C(=O)N[C@@H](C(C)C)C(=O)N(C)[C@@H](CC(C)C)C(=O)N[C@@H](C)C(=O)N[C@H](C)C(=O)N(C)[C@@H](CC(C)C)C(=O)N(C)[C@@H](CC(C)C)C(=O)N(C)[C@@H](C(C)C)C(=O)N1C` [Compound 9]: the Ki was found to be 11 nM on Human CypA and 8.2 nM on Human CypD. Further, the 50% inhibitory concentration (IC50) in assay [1] is 3880 nM; in assay [2] it was 2020 nM. For the same compound, the EC50 with permeabilized HepG2 (setting [3]) worked out at 468 nM.
Consider `C/C=C/C[C@@H](C)[C@@H](O)[C@H]1C(=O)N[C@@H](C(C)C)C(=O)N(C)[C@H](OCCN2CCOCC2)C(=O)N(C)[C@@H](CC(C)C)C(=O)N[C@@H](C(C)C)C(=O)N(C)[C@@H](CC(C)C)C(=O)N[C@@H](C)C(=O)N[C@H](C)C(=O)N(C)[C@@H](CC(C)C)C(=O)N(C)[C@@H](CC(C)C)C(=O)N(C)[C@@H](C(C)C)C(=O)N1C` [Compound 4] (cyclo(A[dA][NMeL][NMeL][NMeV][MeBmt]V[X1][NMeL]V[NMeL])), for which the IC50 stood at 4190 nM in assay [1] and 1320 nM in assay [2]. In addition, in the assay with permeabilized HepG2 (setting [3]), the EC50 stood at 320 nM.
Consider `C/C=C/C[C@@H](C)C(=O)[C@H]1C(=O)N[C@@H](C(C)C)C(=O)N(C)[C@H](OCCN2CCOCC2)C(=O)N(C)[C@@H](CC(C)C)C(=O)N[C@@H](C(C)C)C(=O)N(C)[C@@H](CC(C)C)C(=O)N[C@@H](C)C(=O)N[C@H](C)C(=O)N(C)[C@@H](CC(C)C)C(=O)N(C)[C@@H](CC(C)C)C(=O)N(C)[C@@H](C(C)C)C(=O)N1C` [Compound 6] (cyclo(A[dA][NMeL][NMeL][NMeV][NMeBmt(3-oxo)]V[X1][NMeL]V[NMeL])), for which the results for the Ki at Human CypA and at Human CypD were 90 nM and 150 nM, respectively. Further, the IC50 in assay [1] and in assay [2] was greater than 10000 nM each time. In the assay on permeabilized HepG2 (setting [3]), the EC50 was greater than 10000 nM.
With `C/C=C/C[C@@H](C)[C@@H](O)[C@H]1C(=O)N[C@@H](C(C)C)C(=O)N(C)[C@H](OCCN(C)C)C(=O)N(C)[C@@H](CC(C)C)C(=O)N[C@@H](C(C)C)C(=O)N(C)[C@@H](CC(C)C)C(=O)N[C@@H](C)C(=O)N[C@H](C)C(=O)N(C)[C@@H](CC(C)C)C(=O)N(C)[C@@H](CC(C)C)C(=O)N(C)[C@@H](C(C)C)C(=O)N1C` [Compound 3] (cyclo(A[dA][NMeL][NMeL][NMeV][MeBmt]V[X2][NMeL]V[NMeL])), the half-maximal inhibitory concentration (IC50) in assay [1] worked out at 5510 nM; in assay [2] it was 1320 nM. Moreover, the concentration for a half-maximal effect (EC50) in the assay on permeabilized HepG2 (setting [3]) is 946 nM.
